For test [1], the target named is T1, GST-hMDM2 (aa1-188) (Homo sapiens, UniProt Q00987).
T1 construct: The amino acid residues 1-188 of human MDM2 were expressed as GST-hMDM2 fusion protein; made in house; host or cells: E. coli
Briefly: Homogeneous time resolved fluorometry (HTRF assay), hMDM2/p53 interaction. The test is classed as binding. Particulars: HTRF analysis; GST-hMDM2 (aa1-188) / biotinylated-p53 (aa1-83). As to the method: Residues 1-83 of human p53 were expressed as avitag <TM>-trxa-6×his fusion protein (biotinlabelled p53) in E. coli. Each protein was separated from cell homogenate by affinity chromatography.
Specifically, 10 μL GST-hMDM2 was incubated with 10 uL diluted compound in 10% DMSO for 20 minutes at room temperature. 20 μL biotinlabelled-p53 was added to the mixture of GST-hMDM2 and then incubated at room temperature for 60 min. A 10 μL detection buffer consisting of SA-XLent, anti-GST cavernous compound antibody and KF was added to the reaction solution consisting of GST-hMDM2, biotinlabelled-p53 and the compound and was placed at room temperature to achieve equilibrium and maintained for more than 4 h. The final concentration of DMSO in the reaction solution was 2%. Time resolved fluorescence were measured on a microplate multi label reader. The inhibition percentage was calculated relative to nutlin-3.
In general terms: In TR-FRET formats the signal depends on donor and acceptor labels being close together.

Test [2] relates to p21 transcripts in SJSA-1 cells. The test can be described thus: p21 assay (QRT-PCR of p21 transcripts in SJSA-1 cells). The test is classed as cell-based, human. Particulars: cell assay (SJSA-1 cell), p21 induction, 7 hours incubation. An excerpt: Inhibition of the interaction between hMDM2 and p53 results in the activation of the p53 pathway via the stabilization and accumulation of p53. P53 activates the transcription of many genes, one of which is p21<WAFT/CIP1>. To evaluate the potency of hMDM2 inhibitors, quantitative reverse transcription polymerase chain reaction (QRT PCR) was used to measure the level of p21 transcripts of compound related cells relative to that of control cells treated with dimethyl sulfoxide (DMSO).
In the first day, SJSA-1 cells were inoculated into 100 μL growth medium (RPMI1640; 10 mM HEPES; 1 mM sodium pyruvate; 1× penicillin streptomycin glutamine (PSQ) and 10% FBS, all reagents were obtained from Invitrogen) at a density of 3×10^4 cells in 96-well cell culture plate. The cells were cultured overnight at 37° C. and 5% CO2 atmosphere.
In the second day, hMDM2 inhibitor was gradient diluted in DMSO(Sigma-Aldrich; St. Louis, Mo.). 5 μl of each compound dilution were added into 245 μl filtered assay medium (RPMI1640, 10% FBS, 10 mM HEPES, 1 mM sodium pyruvate and 1×PSQ). Or the assay was conducted with the presence of 10% human serum or 10% mouse serum, or without serum. Growth medium was removed from inoculated SJSA-1 cell culture plate and replaced by 100 μL assay medium for each well. Then 100 μL culture medium containing diluted inhibitor was added into each well to a final volume 200 μL. The final concentration of the compound was in the range of 0.049 μm-50 μm by dose titration with DMSO as control. The cells were incubated at 37° C. and 5% CO2 for 7 hours with the presence of inhibitor. When incubation was completed, growth medium was removed from cells and the plate was stored at −80° C.
In the third day, giagen BioRobot Universal workstation was used to purify total RNA from SJSA-1 cells treated with inhibitor and DMSO respectively. The purification procedure herein was according to RNeasy96BioRobot8000 test kit provided by Qiagen, Valencia, Calif.
To measure the level of existing p21 transcripts, QRT-PCR was introduced. The levels of p21, housekeeping genes and glyceraldehyde 3-phosphate dehydrogenase (GAPDH) were determined by the total RNA from each inhibitor- or DMSO-treated well by duplicated test. The QRT-PCR reaction was performed on the Applied Biosystems prism 7900ht instrument using the relative quantitative (ΔΔ Ct) method according to the following cycle conditions: 48° C. for 30 minutes, then 95° C. for 10 minutes, and then was 40 cycles consisting of 95° C. for 15 seconds and 60° C. for 1 minute. The data were analyzed by using Applied Biosystems SDS2.2 software, with GAPDH as inner control and DMSO treated samples as calibrators. SDS2.2 software calculated the relative quantification (RQ) or increased fold of p21 level relative to DMSO control for each treated sample. The maximum (100%) p21 induction fold was defined by the maximum value of the fitting curve of the reference compound. The p21 induction fold of each inhibitor dose tested was converted to a value representing the percentage of the maximum value. XLFit software (ID business solutions, Alameda, Calif.) was used to make dose-response curve to calculate the IC50 transit value of each inhibitor tested.

Bounds are passed on as bounds.

T1 sequence (Q00987 1-188): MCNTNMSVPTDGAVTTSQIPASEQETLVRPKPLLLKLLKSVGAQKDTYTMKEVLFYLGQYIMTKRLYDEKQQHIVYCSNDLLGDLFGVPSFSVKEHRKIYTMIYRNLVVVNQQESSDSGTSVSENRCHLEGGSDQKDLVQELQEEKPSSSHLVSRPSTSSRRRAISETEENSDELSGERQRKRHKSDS

Usually IC50 stands for the midpoint of a concentration-inhibition curve. A low value points to greater potency in that assay. Consider `CC(C)[C@@H](CS(=N)(=O)C(C)C)N1C(=O)[C@@](C)(CC(=O)Nc2cccc(Br)c2)C[C@H](c2cccc(Cl)c2)[C@H]1c1ccc(Cl)cc1` (stereo partly drawn) [Compound 012], for which the half-inhibitory concentration (IC50) is above 100 nM in test [1] and 1000 to 10000 nM in test [2] (Homo sapiens, SJSA-1, 7 h).

For `CC(C)[C@@H](CS(=O)(=O)C(C)C)N1C(=O)[C@@](C)(CC(=O)NS(=N)(=O)C2(C)CC2)C[C@H](c2cccc(Cl)c2)[C@H]1c1ccc(Cl)cc1` (stereo partly drawn) [Compound 028B], the IC50 fell in the range of 10 to 100 nM in test [1] and 1000 to 10000 nM in test [2].

Turning to `CCOC(=O)N=S(=O)(C[C@H](C(C)C)N1C(=O)[C@@](C)(CC(=O)Nc2ccc(C(=O)O)c(OC)c2)C[C@H](c2cccc(Cl)c2)[C@H]1c1ccc(Cl)cc1)C(C)C` (stereo partly drawn) [Compound 052], the IC50 was below 10 nM in test [1] and below 1000 nM in test [2] (Homo sapiens, SJSA-1, 7 h).

For `COc1cc(NC(=O)C[C@@]2(C)C[C@H](c3cccc(Cl)c3)[C@@H](c3ccc(Cl)cc3)N([C@H](C[S@](=O)(=NC(C)=O)C(C)C)C(C)C)C2=O)ccc1C(=O)O` [Compound 042], the IC50 in test [1] is below 10 nM; in test [2] (Homo sapiens, SJSA-1, 7 h), below 1000 nM.

For the molecule `CC(C)[C@@H](CS(=N)(=O)C(C)C)N1C(=O)[C@@](C)(CC(=O)NS(=O)(=O)c2ccc(C#N)cc2)C[C@H](c2cccc(Cl)c2)[C@H]1c1ccc(Cl)cc1` (stereo partly drawn) [Compound 024], the half-maximal inhibitory concentration (IC50) was 10 to 100 nM in test [1] and 1000 to 10000 nM in test [2] (Homo sapiens, SJSA-1, 7 h).

On to `CC(C)[C@@H](CS(=O)(=O)C(C)C)N1C(=O)[C@@](C)(CC(=O)NS(=N)(=O)C2(C)CC2)C[C@H](c2cccc(Cl)c2)[C@H]1c1ccc(Cl)cc1` (stereo partly drawn) [Compound 028A], for which the concentration for half-maximal inhibition (IC50) in test [1] was 10 to 100 nM; in test [2] (Homo sapiens, SJSA-1, 7 h) it was below 1000 nM.

As for `COc1cc(C(=O)O)ccc1NC(=O)C[C@@]1(C)C[C@H](c2cccc(Cl)c2)[C@@H](c2ccc(Cl)cc2)N([C@H](C[S@](=O)(=NC(N)=O)C(C)C)C(C)C)C1=O` [Compound 054], the half-inhibitory concentration (IC50) in test [1] was below 10 nM; in test [2] (Homo sapiens, SJSA-1, 7 h), below 1000 nM.

As for `Cc1ccc(S(=N)(=O)NC(=O)C[C@@]2(C)C[C@H](c3cccc(Cl)c3)[C@@H](c3ccc(Cl)cc3)N([C@H](CS(=O)(=O)C(C)C)C(C)C)C2=O)cc1` (stereo partly drawn) [Compound 029], the IC50 was above 100 nM in test [1] and 1000 to 10000 nM in test [2] (Homo sapiens, SJSA-1, 7 h).

Regarding `CC(C)[C@@H](CS(=N)(=O)C(C)C)N1C(=O)[C@@](C)(CC(=O)NS(C)(=O)=O)C[C@H](c2cccc(Cl)c2)[C@H]1c1ccc(Cl)cc1` (stereo partly drawn) [Compound 018], the IC50 in test [1] was 10 to 100 nM; in test [2] (Homo sapiens, SJSA-1, 7 h), 1000 to 10000 nM.

In the case of `CC(C)[C@@H](CS(=O)(=NC(=O)N1CCOCC1)C(C)C)N1C(=O)[C@@](C)(CC(=O)O)C[C@H](c2cccc(Cl)c2)[C@H]1c1ccc(Cl)cc1` (stereo partly drawn) [Compound 046], the half-maximal inhibitory concentration (IC50) in test [1] is below 10 nM; in test [2] (Homo sapiens, SJSA-1, 7 h) it was below 1000 nM.

In the case of `CCOC(=O)N=S(=O)(C[C@H](C(C)C)N1C(=O)[C@@](C)(CC(=O)O)C[C@H](c2cccc(Cl)c2)[C@H]1c1ccc(Cl)cc1)C(C)C` (stereo partly drawn) [Compound 048], the IC50 was below 10 nM in test [1] and below 1000 nM in test [2] (Homo sapiens, SJSA-1, 7 h).

On to `COc1cc(C(=O)O)ccc1NC(=O)C[C@@]1(C)C[C@H](c2cccc(Cl)c2)[C@@H](c2ccc(Cl)cc2)N([C@H](C[S@](=O)(=NC(C)=O)C(C)C)C(C)C)C1=O` [Compound 053], for which the half-maximal inhibitory concentration (IC50) is below 10 nM in test [1] and below 1000 nM in test [2] (Homo sapiens, SJSA-1, 7 h).

On to `COc1cc(NC(=O)C[C@@]2(C)C[C@H](c3cccc(Cl)c3)[C@@H](c3ccc(Cl)cc3)N([C@H](CS(=O)(=NC(=O)N3CCCC3)C(C)C)C(C)C)C2=O)ccc1C(=O)O` (stereo partly drawn) [Compound 051], for which the IC50 was below 10 nM in test [1] and below 1000 nM in test [2] (Homo sapiens, SJSA-1, 7 h).

As to `COc1cc(NC(=O)C[C@@]2(C)C[C@H](c3cccc(Cl)c3)[C@@H](c3ccc(Cl)cc3)N([C@H](CS(=N)(=O)C(C)C)C(C)C)C2=O)ccc1C(=O)O` (stereo partly drawn) [Compound 008], the IC50 was below 10 nM in test [1] and below 1000 nM in test [2] (Homo sapiens, SJSA-1, 7 h).

As to `CC(C)[C@@H](CS(=N)(=O)C(C)C)N1C(=O)[C@@](C)(CC(=O)Nc2ccc(F)c(Br)c2)C[C@H](c2cccc(Cl)c2)[C@H]1c1ccc(Cl)cc1` (stereo partly drawn) [Compound 017], the IC50 in test [1] is above 100 nM; in test [2] (Homo sapiens, SJSA-1, 7 h), 1000 to 10000 nM.

These data come from patent US11299460B2, “MDM2 inhibitor, preparation method therefor, pharmaceutical composition thereof and use thereof” (SHANGHAI LONGWOOD BIOPHARMACEUTICALS CO., LTD., priority 2018, dated 2022).
